Measured values published in US20120324604A1, “PESTICIDAL MIXTURES CONTAINING ISOXAZOLINE DERIVATIVES AND A FUNGICIDE” (priority 2010, published 2012).
Values joined by “and” are separate entries in the source; they are usually repeats but may differ in a detail not shown here. Equal values may be shown once.

Experiments:
Format in all cases: cell-based
[1] = system: Glomerella lagenarium (syn. Colletotrichum lagenarium); assay: Glomerella lagenarium (Anthracnose of Cucurbits) growth inhibition, microtiter plate, photometric; conditions: alone
Experimental: Glomerella lagenarium (syn. Colletotrichum lagenarium), Anthracnose of Cucurbits:
(§1) Conidia of the fungus from cryogenic storage were directly mixed into nutrient broth (potato dextrose broth). After placing a (DMSO) solution of the test compounds into a microtiter plate (96-well format) the nutrient broth containing the fungal spores was added.

[2] = system: Mycosphaerella arachidis (syn. Cercospora arachidicola); assay: Mycosphaerella arachidis (Brown Leaf Spot of Groundnut) growth inhibition, microtiter plate, photometric; conditions: alone
Experimental: Mycosphaerella arachidis (syn. Cercospora arachidicola), Brown Leaf Spot of Groundnut (Peanut):
as §1

[3] = system: Fusarium culmorum; assay: Fusarium culmorum (Root Rot) growth inhibition, microtiter plate, photometric
Experimental: Fusarium culmorum (Root Rot):
as §1

[4] = system: Gaeumannomyces graminis; assay: Gaeumannomyces graminis growth inhibition, microtiter plate, photometric
Experimental: Mycelial fragments of the fungus from cryogenic storage were directly mixed into nutrient broth (potato dextrose broth). After placing a (DMSO) solution of the test compounds into a microliter plate (96-well format) the nutrient broth containing the fungal spores was added.

[5] = system: Rhizoctonia solani; assay: Rhizoctonia solani (Foot Rot, Damping-Off) growth inhibition, microtiter plate, photometric
Experimental: Rhizoctonia solani (Foot Rot, Damping-Off):
Mycelial fragments of the fungus from cryogenic storage were directly mixed into nutrient broth (potato dextrose broth). After placing a (DMSO) solution of the test compounds into a microtiter plate (96-well format) the nutrient broth containing the fungal spores was added.

[6] = system: Septoria tritici; assay: Septoria tritici (Leaf Blotch) growth inhibition, microtiter plate, photometric
Experimental: Septoria tritici (Leaf Blotch):
as §1

[7] = system: Pythium ultimum; assay: Pythium ultimum (Damping Off) growth inhibition, microtiter plate, photometric
Experimental: Pythium ultimum (Damping Off):
Mycelial fragments of the fungus, prepared from a fresh liquid culture, were directly mixed into nutrient broth (potato dextrose broth). After placing a (DMSO) solution of the test compounds into a microtiter plate (96-well format) the nutrient broth containing the fungal spores was added.

[8] = single compound at 0.125 ppm AI

CC1COC(Cn2cncn2)(c2ccc(Oc3ccc(Cl)cc3)cc2Cl)O1 (stereo not drawn) [Difenoconazole] was tested, and the “AVERAGE DEAD IN %” value ([1]; 0.5 ppm AI) was 20%, the “AVERAGE DEAD IN %” value ([1]; 1 ppm AI) was 20% and the “AVERAGE DEAD IN %” value ([2]; 0.00390625 ppm AI) was 0%. For the same compound, the “AVERAGE DEAD IN %” value ([2]; 0.0078125 ppm AI) was 50%, the “AVERAGE DEAD IN %” value ([2]; 0.00390625 PPM AI) was 0% and the “AVERAGE DEAD IN %” value ([2]; 0.015625 PPM AI) was 50% and 90%. For the same compound, the “AVERAGE DEAD IN %” value ([3]; alone, 0.25 PPM AI) was 20%, the “AVERAGE DEAD IN %” value ([3]; alone, 0.5 PPM AI) was 20% and the “AVERAGE DEAD IN %” value ([3]; alone, 1 PPM AI) was 20%. The “AVERAGE DEAD IN %” value ([3]; alone, 2 PPM AI) was 90%, the “AVERAGE DEAD IN %” value ([3]; single compound, 0.25 PPM AI, 48 hrs, 24° C.) was 20% and the “AVERAGE DEAD IN %” value ([3]; single compound, 0.5 PPM AI, 48 hrs, 24° C.) was 20%. For the same compound, the “AVERAGE DEAD IN %” value ([3]; single compound, 1 PPM AI, 48 hrs, 24° C.) was 70%, the “AVERAGE DEAD IN %” value ([4]; single compound at 0.25 ppm AI) was 0% and the “AVERAGE DEAD IN %” value ([4]; single compound at 0.5 ppm AI) was 0%. For the same compound, the “AVERAGE DEAD IN %” value ([4]; single compound at 1 ppm AI) was 20%, the “AVERAGE DEAD IN %” value ([4]; single compound at 2 ppm AI) was 90% and the “AVERAGE DEAD IN %” value ([5]; applied alone, 0.25 ppm AI) was 20%. For the same compound, the “AVERAGE DEAD IN %” value ([5]; applied alone, 0.5 ppm AI) was 50% and 70%, the “AVERAGE DEAD IN %” value ([5]; applied alone, 1 ppm AI) was 50% and 100% and the “AVERAGE DEAD IN %” value ([5]; applied alone, 2 ppm AI) was 100%. For the same compound, the “AVERAGE DEAD IN %” value ([6]; 0.03125 ppm AI, alone) was 50%, the “AVERAGE DEAD IN %” value ([6]; 0.0625 ppm AI, alone) was 70% and the “AVERAGE DEAD IN %” value ([6]; 0.125 ppm AI, alone) was 90%. For the same compound, the “AVERAGE DEAD IN %” value ([6]; 0.25 ppm AI, alone) was 90%, the “AVERAGE DEAD IN %” value ([6]; 0.5 ppm AI, alone) was 90% and the “AVERAGE DEAD IN %” value ([6]; 1 ppm AI, alone) was 90%. For the same compound, the “AVERAGE DEAD IN %” value ([6]; 2 ppm AI, alone) was 90%, the “AVERAGE DEAD IN % Difenoconazole” value ([6]; Difenoconazole alone, 0.0078125 ppm AI) was 0% and the “AVERAGE DEAD IN % Difenoconazole” value ([6]; Difenoconazole alone, 0.015625 ppm AI) was 0%. For the same compound, the “AVERAGE DEAD IN % Difenoconazole” value ([6]; Difenoconazole alone, 0.0625 ppm AI) was 50% and 70%, the “AVERAGE DEAD IN % Difenoconazole” value ([6]; Difenoconazole alone, 0.125 ppm AI) was 70% and 90% and the “AVERAGE DEAD IN % Difenoconazole” value ([6]; Difenoconazole alone, 0.25 ppm AI) was 70% and 90%. The “AVERAGE DEAD IN % Difenoconazole” value ([6]; Difenoconazole alone, 0.5 ppm AI) was 90%, the “AVERAGE DEAD IN % Difenoconazole” value ([6]; Difenoconazole alone, 1 ppm AI) was 90% and the “AVERAGE DEAD IN % Difenoconazole” value ([6]; Difenoconazole alone, 2 ppm AI) was 90%.
CC(C)C1C2CCC1c1c(NC(=O)c3cn(C)nc3C(F)F)cccc12 (stereo not drawn) [Isopyrazam, reference compound] was tested, and the “AVERAGE DEAD IN %” value ([2]; 0.0078125 ppm AI) was 0%, the “AVERAGE DEAD IN %” value ([2]; 0.015625 ppm AI) was 0% and the “AVERAGE DEAD IN %” value ([2]; 0.03125 ppm AI) was 20%. For the same compound, the “AVERAGE DEAD IN %” value ([2]; 0.0625 ppm AI) was 70% and 90%, the “AVERAGE DEAD IN %” value ([2]; 0.015625 PPM AI) was 0% and the “AVERAGE DEAD IN %” value ([2]; 0.03125 PPM AI) was 20%. For the same compound, the “AVERAGE DEAD IN %” value ([2]; 0.0625 PPM AI) was 50% and 70%, the “AVERAGE DEAD IN %” value ([4]; applied alone, 0.25 ppm AI) was 0% and the “AVERAGE DEAD IN %” value ([4]; applied alone, 0.5 ppm AI) was 0%. For the same compound, the “AVERAGE DEAD IN %” value ([4]; single compound at 0.5 ppm AI) was 0%, the “AVERAGE DEAD IN %” value ([4]; single compound at 2 ppm AI) was 50% and the “AVERAGE DEAD IN %” value ([5]; applied alone, 0.015625 ppm AI) was 0%. The “AVERAGE DEAD IN %” value ([5]; applied alone, 0.125 ppm AI) was 70% and 90% and 100%, the “AVERAGE DEAD IN %” value ([5]; applied alone, 0.25 ppm AI) was 90% and the “AVERAGE DEAD IN %” value ([5]; single compound at 0.0078125 ppm AI) was 0%. The “AVERAGE DEAD IN %” value ([5]; single compound at 0.015625 ppm AI) was 0%, the “AVERAGE DEAD IN %” value ([5]; single compound at 0.03125 ppm AI) was 0% and the “AVERAGE DEAD IN %” value ([5]; single compound at 0.0625 ppm AI) was 50%. For the same compound, the “AVERAGE DEAD IN %” value [5, 8] was 70%, the “AVERAGE DEAD IN %” value ([5]; single compound at 0.25 ppm AI) was 90% and the “AVERAGE DEAD IN %” value ([6]; 0.0625 ppm AI, alone) was 20%. The “AVERAGE DEAD IN %” value ([6]; 0.125 ppm AI, alone) was 50%, the “AVERAGE DEAD IN %” value ([6]; 0.25 ppm AI, alone) was 70% and the “AVERAGE DEAD IN %” value ([6]; 0.5 ppm AI, alone) was 90%. For the same compound, the “AVERAGE DEAD IN % Isopyrazam” value ([6]; Isopyrazam alone, 0.0625 ppm AI) was 20%, the “AVERAGE DEAD IN % Isopyrazam” value ([6]; Isopyrazam alone, 0.25 ppm AI) was 90% and 70% and the “AVERAGE DEAD IN % Isopyrazam” value ([6]; Isopyrazam alone, 0.5 ppm AI) was 90%. The “AVERAGE DEAD IN %” value ([6]; alone, 0.0078125 ppm AI) was 0%, the “AVERAGE DEAD IN %” value ([6]; alone, 0.015625 ppm AI) was 0% and the “AVERAGE DEAD IN %” value ([6]; alone, 0.03125 ppm AI) was 0%. The “AVERAGE DEAD IN %” value ([6]; alone, 0.0625 ppm AI) was 20%, the “AVERAGE DEAD IN %” value ([6]; alone, 0.125 ppm AI) was 50% and the “AVERAGE DEAD IN %” value ([6]; alone, 0.25 ppm AI) was 70%. The “AVERAGE DEAD IN %” value ([6]; alone, 0.5 ppm AI) was 90%.
For C#CCOc1ccc(CCNC(=O)C(OCC#C)c2ccc(Cl)cc2)cc1OC (stereo not drawn) [Mandipropamid, reference compound], the “AVERAGE DEAD IN %” value ([4]; single compound at 0.25 ppm AI) was 0%, the “AVERAGE DEAD IN %” value ([4]; single compound at 0.5 ppm AI) was 0% and the “AVERAGE DEAD IN %” value ([4]; single compound at 1 ppm AI) was 0%.
With COCC(=O)N(c1c(C)cccc1C)[C@H](C)C(=O)OC [Mefenoxam, reference compound] the “AVERAGE DEAD IN %” value ([4]; single compound at 0.25 ppm AI) was 0%, the “AVERAGE DEAD IN %” value ([4]; single compound at 0.5 ppm AI) was 0% and the “AVERAGE DEAD IN %” value ([4]; single compound at 1 ppm AI) was 0%. The “AVERAGE DEAD IN %” value [7, 8] was 50% and 70%, the “AVERAGE DEAD IN %” value ([7]; single compound at 0.25 ppm AI) was 70% and 90% and the “AVERAGE DEAD IN %” value ([7]; single compound at 0.5 ppm AI) was 90% and 100%. For the same compound, the “AVERAGE DEAD IN %” value ([7]; single compound at 1 ppm AI) was 100% and the “AVERAGE DEAD IN %” value ([7]; single compound at 2 ppm AI) was 100%.
